≈ marks a conversion by molar mass, not a printed value.
Experiments:
[1] = Antioxidant activity assessed as DPPH radical scavenging activity; format: functional
[2] = molecular target: T1, D(4) dopamine receptor (Homo sapiens) (UniProt P21917); assay: Inhibition of human D4 receptor
T1 sequence (whole entry): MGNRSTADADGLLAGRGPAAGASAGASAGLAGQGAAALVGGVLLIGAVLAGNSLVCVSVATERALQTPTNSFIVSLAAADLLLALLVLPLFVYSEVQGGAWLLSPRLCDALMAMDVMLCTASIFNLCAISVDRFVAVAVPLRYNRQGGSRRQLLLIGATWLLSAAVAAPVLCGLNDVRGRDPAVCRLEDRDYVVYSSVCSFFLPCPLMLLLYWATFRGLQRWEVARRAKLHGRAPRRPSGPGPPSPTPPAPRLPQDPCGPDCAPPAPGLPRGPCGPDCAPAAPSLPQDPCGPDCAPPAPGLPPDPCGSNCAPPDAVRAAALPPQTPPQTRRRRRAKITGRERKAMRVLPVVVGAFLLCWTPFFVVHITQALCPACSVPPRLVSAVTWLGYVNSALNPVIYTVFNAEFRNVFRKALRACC

[3] = Antiproliferative activity against human U87 cells assessed as reduction in cell viability by MTT assay; format: functional, cell-based, U-87MG ATCC; details: U-87 MG
[4] = molecular target: Dopamine receptors; D2 & D4 (Homo sapiens, UniProt P14416+P21917); assay: Binding affinity to human D2/D4 receptor assessed as inhibition constant; format: protein assay
[5] = test system: Staphylococcus aureus; assay: Antibacterial activity against Staphylococcus aureus assessed as zone of inhibition; format: functional
[6] = test system: Bacillus subtilis; assay: Antibacterial activity against Bacillus subtilis assessed as zone of inhibition; format: functional
[7] = test system: Bacillus cereus; assay: Antibacterial activity against Bacillus cereus assessed as zone of inhibition; format: functional
[8] = test system: Pseudomonas aeruginosa; assay: Antibacterial activity against Pseudomonas aeruginosa assessed as zone of inhibition; format: functional
[9] = test system: Escherichia coli; assay: Antibacterial activity against Escherichia coli assessed as zone of inhibition; format: functional
[10] = test system: Klebsiella aerogenes; assay: Antibacterial activity against Enterobacter aerogenes assessed as zone of inhibition; format: functional
[11] = test system: Aspergillus niger; assay: Antifungal activity against Aspergillus niger assessed as zone of inhibition; format: functional
[12] = test system: Penicillium italicum; assay: Antifungal activity against Penicillium italicum assessed as zone of inhibition; format: functional
[13] = test system: Fusarium oxysporum; assay: Antifungal activity against Fusarium oxysporum assessed as zone of inhibition; format: functional
[14] = test system: Xanthomonas citri pv. malvacearum; assay: Antibacterial activity against Xanthomonas citri pv. malvacearum assessed as reduction in bacterial growth; format: functional; set-up: concentration or dose not given beside the values
[15] = test system: Fusarium verticillioides; assay: Antifungal activity against Fusarium verticillioides assessed as reduction in fungal growth; format: functional; set-up: concentration or dose not given beside the values
[16] = test system: Rhizoctonia solani; assay: Antifungal activity against Rhizoctonia solani assessed as reduction in fungal growth; format: functional; set-up: concentration or dose not given beside the values
[17] = test system: Erysiphe necator; assay: Antifungal activity against powdery mildew Erysiphe necator assessed as reduction in fungal growth; format: functional; set-up: concentration or dose not given beside the values
[18] = test system: Phytophthora; assay: Antimicrobial activity against Phytophthora assessed as reduction in microbial growth; format: functional; set-up: concentration or dose not given beside the values
[19] = test system: Botrytis cinerea; assay: Antifungal activity against gray mold Botrytis cinerea assessed as reduction in fungal growth; format: functional; set-up: concentration or dose not given beside the values
[20] = test system: Rhizoctonia solani; assay: Antifungal activity against Rhizoctonia solani at 150 uM; format: functional, organism-based
[21] = test system: Serratia marcescens; assay: Antibacterial activity against Serratia marcescens assessed as zone of inhibition; format: functional
[22] = test system: Proteus mirabilis; assay: Antibacterial activity against Proteus mirabilis assessed as zone of inhibition; format: functional
[23] = test system: Aspergillus ochraceus; assay: Antifungal activity against Aspergillus ochraceus assessed as zone of inhibition; format: functional
[24] = test system: Penicillium chrysogenum; assay: Antifungal activity against Penicillium chrysogenum assessed as zone of inhibition; format: functional
[25] = test system: Ehrlich; assay: cells; details: Mus musculus
Description: Anticancer activity against mouse EAC cells assessed as reduction in cell viability

[26] = test system: HCT-116/VM46; assay: cells; details: Homo sapiens
[27] = test system: Colletotrichum camelliae; assay: Antifungal activity against Colletotrichum camelliae; format: functional, organism-based

## COc1ccc(C2SCCNc3c2c(=O)oc2ccccc32)c(O)c1 (stereo not drawn)
[1]
  IC50: 120 µM

## CC(CN1CCC2c3ccccc3OC(=O)C2C1)N(C)C (stereo not drawn)
[2]
  ID50: 0.192 mg/kg

## N#CC1=C(N)Oc2c(c(=O)oc3ccccc23)C12C(=O)N(CCCCBr)c1ccccc12 (stereo not drawn)
[3]
  IC50: 78 µM

## COc1ccc2c3c(c(=O)oc2c1)CN(Cc1ccc(F)cc1)CC3
[4]
  Ki: 1350 nM

## O=c1[nH]cnc2c1C(c1ccc(Br)cc1)c1c(c3ccccc3oc1=O)O2 (stereo not drawn)
[5]
  inhibition zone (IZ): 22 mm
[6]
  inhibition zone (IZ): 18 mm
[7]
  inhibition zone (IZ): 16 mm
[8]
  inhibition zone (IZ): 10 mm
[9]
  inhibition zone (IZ): 13 mm
[10]
  inhibition zone (IZ): 12 mm
[11]
  inhibition zone (IZ): 21 mm
[12]
  inhibition zone (IZ): 12 mm
[13]
  inhibition zone (IZ): 20 mm

## COc1ccc(C2SCCNc3c2c(=O)oc2cc(O)ccc32)c(O)c1 (stereo not drawn)
[1]
  IC50: 120 µM

## CC(=O)N1C(c2ccccc2)Cc2c(c(=O)oc3cc(C)ccc23)C1c1ccccc1 (stereo not drawn)
[14]
  Activity: 18%
[15]
  Activity: 10%
[16]
  Activity: 0%
[17]
  Activity: 52%
[18]
  Activity: 83%
[19]
  Activity: 11%

## COc1ccc2c3c(c(=O)oc2c1)CN(Cc1ccc(Cl)c(Cl)c1)CC3
[4]
  Ki: 95 nM

## COc1ccc2c(c1)oc(=O)c1c(C)coc12
[20]
  EC50: 3.57 µg/mL (≈ 15.5 µM)

## CC1c2c(c3ccccc3oc2=O)Oc2ncn3nc(-c4ccccc4)nc3c21 (stereo not drawn)
[5]
  inhibition zone (IZ): 20 mm
[7]
  inhibition zone (IZ): 22 mm
[21]
  inhibition zone (IZ): 20 mm
[22]
  inhibition zone (IZ): 19 mm
[23]
  inhibition zone (IZ): 19 mm
[24]
  inhibition zone (IZ): 17 mm

## COc1ccc2c3c(c(=O)oc2c1)CN(CCc1ccccc1)CC3
[4]
  Ki: 734 nM

## CC1c2c(c3ccccc3oc2=O)Oc2ncn(C)c(=N)c21 (stereo not drawn)
[5]
  inhibition zone (IZ): 18 mm
[7]
  inhibition zone (IZ): 17 mm
[21]
  inhibition zone (IZ): 19 mm
[22]
  inhibition zone (IZ): 19 mm
[23]
  inhibition zone (IZ): 19 mm
[24]
  inhibition zone (IZ): 15 mm

## CC1(C)S[C@@H]2[C@H](NC(=O)[C@H](N)c3ccccc3)C(=O)N2[C@H]1C(=O)O [AMPICILLIN]
[5]
  inhibition zone (IZ): 26 mm
[7]
  inhibition zone (IZ): 25 mm
[21]
  inhibition zone (IZ): 26 mm
[22]
  inhibition zone (IZ): 27 mm

## O=c1oc2ccccc2c2nc(/C=C/c3ccccc3)cc(-c3ccccc3)c12
[25]
  IC50: 120 nM

## CCc1cccc(-n2c(N)c(C#N)c3c(c(=O)oc4ccc5ccccc5c43)c2=O)c1
[25]
  IC50: 246000 nM

## CC[C@]1(O)C[C@@H]2CN(CCc3c([nH]c4ccccc34)[C@@](C(=O)OC)(c3cc4c(cc3OC)N(C)[C@H]3[C@@](O)(C(=O)OC)[C@H](OC(C)=O)[C@]5(CC)C=CCN6CC[C@]43[C@@H]65)C2)C1 [VINBLASTINE]
[26]
  IC50: 2 nM

## Cc1coc2c1c(=O)oc1ccccc12
[27]
  EC50: 8.74 µg/mL (≈ 43.7 µM)

## CCSc1nn2c(=N)c3c(=O)oc4ccccc4c3nc2s1
[11]
  inhibition zone (IZ): 15 mm

## Cc1ccc2c3c(c(=O)oc2c1)C(c1ccccc1)NC(c1ccccc1)C3 (stereo not drawn)
[14]
  Activity: 0%
[15]
  Activity: 20%
[16]
  Activity: 13%
[17]
  Activity: 38%
[18]
  Activity: 83%
[19]
  Activity: 0%

## O=c1oc2ccccc2c2nc(-c3ccccc3)cc(-c3ccc([N+](=O)[O-])cc3)c12
[25]
  IC50: 120 nM

## O=c1[nH]cc(F)c(=O)[nH]1 [FLUOROURACIL]
[25]
  IC50: 380 nM

## NYSTATIN
[12]
  inhibition zone (IZ): 20 mm
[13]
  inhibition zone (IZ): 26 mm
[23]
  inhibition zone (IZ): 24 mm
[24]
  inhibition zone (IZ): 24 mm

## CN1C(c2ccccc2)Cc2c(c(=O)oc3c2ccc2ccccc23)C1c1ccccc1 (stereo not drawn)
[14]
  Activity: 9%
[15]
  Activity: 14%
[16]
  Activity: 0%
[17]
  Activity: 8%
[18]
  Activity: 0%
[19]
  Activity: 0%

## CC1C2=C(N=CNC2N)Oc2c1c(=O)oc1ccccc21 (stereo not drawn)
[5]
  inhibition zone (IZ): 21 mm
[7]
  inhibition zone (IZ): 22 mm
[21]
  inhibition zone (IZ): 20 mm
[22]
  inhibition zone (IZ): 19 mm
[23]
  inhibition zone (IZ): 14 mm
[24]
  inhibition zone (IZ): 12 mm
